Test results reported in patent US20220340547A1, “INDOLE DERIVATIVE-CONTAINING INHIBITOR, PREPARATION METHOD THEREFOR AND APPLICATION THEREOF” (Shanghi Hansoh Biosoh Biomedical Co., Ltd., priority 2019, published 2022).

Tests used:
EGFR WT = EGFR WT (Homo sapiens, UniProt P00533); assay: TR-FRET inhibition of kinase activity of wild type EGFR; type: biochemical
Text: Determination of the Inhibitory Effect of the Compound of the Present Invention on the Kinase Activity of Wild Type EGFR
Experimental objective: The objective of this test example is to determine the inhibitory effect of the compound on the kinase activity of wild type EGFR.
(§1) Experimental process: The experiment applied the TR-FRET (time-resolved fluorescence resonance energy transfer) method to study the inhibitory effect of the compound on the kinase activity of wild type EGFR. The experiment was carried out in a 384-well plate. Experimental buffer (50 mM HEPES, 1 mM EGTA, 10 mM MgCl2, 2 mM DTT, 0.01% Tween-20) was formulated. The compound was diluted in gradient to different concentrations with the experimental buffer. 2 μL of the solution was added to each well of the 384-well plate. 4 μL of diluted EGFR kinase solution (0.001-0.5 nM) was added, and the plate was incubated at room temperature for 10 minutes. 4 μL of ULight-poly GT/ATP mixed solution was added, and the plate was incubated at room temperature for 30 to 60 minutes. 5 μL of EDTA stop solution and 5 μL of Eu-labeled antibody detection solution were added, and the plate was incubated at room temperature for 1 hour.
(§2) Experimental Data Processing Method:
(§3) The concentration and inhibition rate were fitted to a nonlinear regression curve by Graphpad Prism software to obtain the IC50 value.

[1] = target: Ba/F3 EGFR-D770-N771ins_SVD (Homo sapiens, UniProt P00533, DUP768-770, cells depend on it); assay: Proliferation of Ba/F3 EGFR mutant cell line (CellTiter-Glo); type: cell-based, mouse; settings: 72 h to 144 h, read-out: Ba/F3 EGFR-D770-N771ins_SVD IC50
Experimental: Determination of the Inhibitory Effect of the Compound of the Present Invention on the Proliferation of Ba/F3 EGFR Mutant Cell Line and A431 Cell Line
(§4) Experimental objective: The objective of this test example is to determine the inhibitory effect of the compound on the proliferation of Ba/F3 EGFR mutant cell line and A431 cell line
(§5) Experimental instruments: Microplate reader (BioTek Synergy H1), pipette (Eppendorf & Rainin).
Ba/F3 EGFR mutant cells were cultured, and harvested after reaching a suitable density. The cells were adjusted to an appropriate cell concentration with the complete medium. The cell suspension were spread on a 96-well plate (90 μL per well), and the plate was placed in a 37° C., 5% CO2 incubator overnight to let the cells adhere to the wall. Solutions of the compound at different concentrations were formulated with DMSO and culture medium. Solvent control was set. […] CellTiter-Glo solution was added and mixed well by shaking, and the plate was incubated in the dark for 10 minutes. The values were measured by BioTek Synergy H1 microplate reader.
as §2
(§6) The inhibition rate was calculated using the […] signal value. The concentration and inhibition rate were fitted to a nonlinear regression curve by Graphpad Prism software to obtain the IC50 value.

A431 cell line = assay: Proliferation of A431 cell line (CellTiter-Glo); type: cell-based; settings: Homo sapiens, A-431, 72 h
Experimental: Test Example 3. Determination of the Inhibitory Effect of the Compound of the Present Invention on the Proliferation of Ba/F3 EGFR Mutant Cell Line and A431 Cell Line
as §4, §5
A431 cells were cultured, and harvested after reaching a suitable density. The cells were adjusted to an appropriate cell concentration with the complete medium. The cell suspension were spread on a 96-well plate (90 μL per well), and the plate was placed in a 37° C., 5% CO2 incubator overnight to let the cells adhere to the wall. Solutions of the compound at different concentrations were formulated with DMSO and culture medium. Solvent control was set. The solution of the compound was added to the 96-well plate ([…]), and the plate was incubated in the 37° C., 5% CO2 incubator for 72 h. CellTiter-Glo solution was added and mixed well by shaking, and the plate was incubated in the dark for 10 minutes. The values were measured by BioTek Synergy H1 microplate reader.
as §2, §6

EGFR D770_N771insNPG = EGFR D770_N771insNPG (Homo sapiens, UniProt P00533, INS770NPG); assay: TR-FRET inhibition of kinase activity of EGFR exon 20 insertion mutation; type: biochemical
Text: Determination of the Inhibitory Effect of the Compound of the Present Invention on the Kinase Activity of EGFR Exon 20 Insertion Mutation
Experimental objective: The objective of this test example is to determine the inhibitory effect of the compound on the kinase activity of EGFR exon 20 insertion mutation.
as §1, with “of EGFR exon 20 insertion mutation.” for “of wild type EGFR.”, “buffer. 2.5” for “buffer. 2”, “plate. 2.5” for “plate. 4”, “minutes. 5” for “minutes. 4”
as §2, §3

Sequence of EGFR WT (P00533 25-1210): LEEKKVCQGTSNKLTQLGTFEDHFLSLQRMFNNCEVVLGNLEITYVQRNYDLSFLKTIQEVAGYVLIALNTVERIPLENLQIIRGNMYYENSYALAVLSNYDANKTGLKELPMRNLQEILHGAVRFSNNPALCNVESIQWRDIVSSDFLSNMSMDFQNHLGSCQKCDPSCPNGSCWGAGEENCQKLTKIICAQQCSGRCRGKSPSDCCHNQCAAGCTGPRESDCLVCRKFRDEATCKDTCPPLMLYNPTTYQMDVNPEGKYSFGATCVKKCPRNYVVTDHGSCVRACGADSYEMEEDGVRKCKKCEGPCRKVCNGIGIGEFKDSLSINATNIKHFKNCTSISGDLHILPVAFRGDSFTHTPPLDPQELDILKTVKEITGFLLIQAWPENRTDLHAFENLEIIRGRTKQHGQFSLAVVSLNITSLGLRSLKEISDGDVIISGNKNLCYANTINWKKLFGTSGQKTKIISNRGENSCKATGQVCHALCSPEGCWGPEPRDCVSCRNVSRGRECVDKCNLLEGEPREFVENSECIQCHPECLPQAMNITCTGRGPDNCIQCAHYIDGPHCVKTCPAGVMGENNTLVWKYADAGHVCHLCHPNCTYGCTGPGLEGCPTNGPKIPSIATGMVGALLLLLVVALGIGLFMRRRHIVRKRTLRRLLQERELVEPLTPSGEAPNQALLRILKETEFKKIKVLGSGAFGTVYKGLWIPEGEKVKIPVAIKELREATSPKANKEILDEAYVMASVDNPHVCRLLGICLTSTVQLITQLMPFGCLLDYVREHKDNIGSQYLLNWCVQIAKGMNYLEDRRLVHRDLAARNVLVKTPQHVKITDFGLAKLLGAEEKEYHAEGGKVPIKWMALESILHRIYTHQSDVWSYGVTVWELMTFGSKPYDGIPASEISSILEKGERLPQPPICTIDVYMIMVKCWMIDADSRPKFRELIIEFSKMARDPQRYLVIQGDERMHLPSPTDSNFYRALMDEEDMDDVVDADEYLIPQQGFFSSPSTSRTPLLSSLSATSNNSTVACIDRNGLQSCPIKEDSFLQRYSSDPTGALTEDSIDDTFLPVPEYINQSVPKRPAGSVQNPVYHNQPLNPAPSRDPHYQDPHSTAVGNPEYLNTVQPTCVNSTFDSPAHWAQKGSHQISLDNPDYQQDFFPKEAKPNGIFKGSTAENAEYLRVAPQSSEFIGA
Sequence of EGFR D770_N771insNPG (P00533 with tags, fused parts or gaps INS770NPG limits assumed): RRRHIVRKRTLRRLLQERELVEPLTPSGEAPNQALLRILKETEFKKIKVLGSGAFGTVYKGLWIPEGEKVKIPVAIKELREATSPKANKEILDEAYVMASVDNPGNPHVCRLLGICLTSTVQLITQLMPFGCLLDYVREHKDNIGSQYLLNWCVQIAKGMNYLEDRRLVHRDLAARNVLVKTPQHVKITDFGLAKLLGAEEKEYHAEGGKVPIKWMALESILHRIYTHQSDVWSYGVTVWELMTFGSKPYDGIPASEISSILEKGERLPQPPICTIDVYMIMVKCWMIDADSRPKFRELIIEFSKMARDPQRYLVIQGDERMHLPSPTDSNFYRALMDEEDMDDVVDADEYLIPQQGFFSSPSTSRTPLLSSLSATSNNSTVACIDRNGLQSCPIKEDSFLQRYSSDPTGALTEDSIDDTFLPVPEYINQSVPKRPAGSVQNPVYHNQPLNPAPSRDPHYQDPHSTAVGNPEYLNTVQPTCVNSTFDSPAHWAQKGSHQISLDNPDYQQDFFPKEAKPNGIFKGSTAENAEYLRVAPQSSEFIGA
Sequence of Ba/F3 EGFR-D770-N771ins_SVD (P00533 with tags, fused parts or gaps DUP768-770): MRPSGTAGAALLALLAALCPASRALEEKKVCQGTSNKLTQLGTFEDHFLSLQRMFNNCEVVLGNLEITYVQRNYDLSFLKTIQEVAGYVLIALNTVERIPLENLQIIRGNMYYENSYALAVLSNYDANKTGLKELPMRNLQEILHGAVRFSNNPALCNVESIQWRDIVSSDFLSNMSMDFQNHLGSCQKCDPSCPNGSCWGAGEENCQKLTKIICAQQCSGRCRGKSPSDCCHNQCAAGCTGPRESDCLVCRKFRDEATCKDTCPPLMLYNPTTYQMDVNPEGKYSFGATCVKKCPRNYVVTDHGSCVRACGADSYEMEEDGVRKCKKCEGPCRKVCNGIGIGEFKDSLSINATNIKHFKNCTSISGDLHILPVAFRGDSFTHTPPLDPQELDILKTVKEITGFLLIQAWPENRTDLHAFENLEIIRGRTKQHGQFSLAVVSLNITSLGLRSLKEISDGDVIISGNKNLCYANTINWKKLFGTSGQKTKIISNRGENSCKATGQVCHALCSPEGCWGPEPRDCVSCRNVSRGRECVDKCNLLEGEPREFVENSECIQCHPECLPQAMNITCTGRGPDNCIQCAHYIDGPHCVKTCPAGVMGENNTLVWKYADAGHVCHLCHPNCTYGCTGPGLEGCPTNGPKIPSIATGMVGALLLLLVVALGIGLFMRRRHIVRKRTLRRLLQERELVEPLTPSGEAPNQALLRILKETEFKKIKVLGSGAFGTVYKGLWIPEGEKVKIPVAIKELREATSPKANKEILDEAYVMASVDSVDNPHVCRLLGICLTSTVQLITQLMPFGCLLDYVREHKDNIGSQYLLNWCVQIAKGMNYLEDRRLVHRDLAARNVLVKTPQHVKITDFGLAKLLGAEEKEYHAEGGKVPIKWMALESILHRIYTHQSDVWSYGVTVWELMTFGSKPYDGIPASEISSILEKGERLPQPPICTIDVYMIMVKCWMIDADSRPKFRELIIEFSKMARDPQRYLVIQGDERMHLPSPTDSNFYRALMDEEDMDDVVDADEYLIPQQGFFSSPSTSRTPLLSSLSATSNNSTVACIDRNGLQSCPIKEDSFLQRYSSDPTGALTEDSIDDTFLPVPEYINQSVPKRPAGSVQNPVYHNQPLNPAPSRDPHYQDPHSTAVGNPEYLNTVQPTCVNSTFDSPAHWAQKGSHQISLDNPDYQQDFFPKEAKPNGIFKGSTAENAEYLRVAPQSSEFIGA

SMILES | IC50 (EGFR WT) [nM] | further results
C=CC(=O)Nc1cc(Nc2ncc(C(=O)OC)c(-c3cn(C)c4ccccc34)n2)c(OC)cc1N1C[C@@H]2C[C@H]1CN2C [Example 25, Methyl 2-((5-acrylamido-2-methoxy-4-((1S,4S)-5-methyl-2,5-diazabicyclo[2.2.1]heptan-2-yl)phenyl)amino)-4-(1-methyl-1H-indol-3-yl)pyrimidine-5-carboxylate] | 89.8 | –
C=CC(=O)Nc1cc(Nc2ncc(C(F)(F)F)c(-c3cn(C4CC4)c4ccccc34)n2)c(OC)cc1N1C[C@H]2CN(C)C[C@H]2C1 [Example 27, N-(5-((4-(1-Cyclopropyl-1H-indol-3-yl)-5-(trifluoromethyl)pyrimidin-2-yl)amino)-4-methoxy-2-((3aR,6aS)-5-methylhexahydropyrrolo[3,4-c]pyrrol-2(1H)-yl)phenyl)acrylamide] | 121 | –
C=CC(=O)Nc1cc(Nc2ncc(Br)c(-c3cn(C4CC4)c4ccccc34)n2)c(OC)cc1N1C[C@H]2CN(C)C[C@H]2C1 [Example 28, N-(5-((5-Bromo-4-(1-cyclopropyl-1H-indol-3-yl)pyrimidin-2-yl)amino)-4-methoxy-2-((3aR,6aS)-5-methylhexahydropyrrolo[3,4-c]pyrrol-2(1H)-yl)phenyl)acrylamide] | 63.3 | –
C=CC(=O)Nc1cc(Nc2ncc(C(=O)NC3CC3)c(-c3cn(C)c4ccccc34)n2)c(OC)cc1N1C[C@H]2CN(C)C[C@H]2C1 [Example 32, 2-((5-Acrylamido-2-methoxy-4-((3aR,6aS)-5-methylhexahydropyrrolo[3,4-c]pyrrol-2(1H)-yl)phenyl)amino)-N-cyclopropyl-4-(1-methyl-1H-indol-3-yl)pyrimidine-5-carboxamide] | 82.9 | –
C=CC(=O)Nc1cc(Nc2ncc(C(=O)NCc3ccccc3)c(-c3cn(C)c4ccccc34)n2)c(OC)cc1N(C)CCN(C)C [Example 33, 2-((5-Acrylamido-4-((2-(dimethylamino)ethyl)(methyl)amino)-2-methoxyphenyl)amino)-N-benzyl-4-(1-methyl-1H-indol-3-yl)pyrimidine-5-carboxamide] | 133 | –
C=CC(=O)Nc1cc(Nc2ncc(-c3cccs3)c(-c3cn(C4CC4)c4ccccc34)n2)c(OC)cc1N1C[C@H]2CN(C)C[C@H]2C1 [Example 46, N-(5-((4-(1-Cyclopropyl-1H-indol-3-yl)-5-(thiophen-2-yl)pyrimidin-2-yl)amino)-4-methoxy-2-((3aR,6aS)-5-methylhexahydropyrrolo[3,4-c]pyrrol-2(1H)-yl)phenyl)acrylamide] | 72.7 | –
C=CC(=O)Nc1cc(Nc2ncc(C#N)c(-c3cn(C4CC4)c4cccc(F)c34)n2)c(OC)cc1N(C)CCN(C)C [Example 120, N-(5-((5-Cyano-4-(1-cyclopropyl-4-fluoro-1H-indol-3-yl)pyrimidin-2-yl)amino)-2-((2-(dimethylamino)ethyl)(methyl)amino)-4-methoxyphenyl)acrylamide] | > 1000 | –
C=CC(=O)Nc1cc(Nc2ncc(C#N)c(-c3cn(C4CC4)c4cc(OC)c(F)cc34)n2)c(OC)cc1N(C)CCN(C)C [Example 127, N-(5-((5-Cyano-4-(1-cyclopropyl-5-fluoro-6-methoxy-1H-indol-3-yl)pyrimidin-2-yl)amino)-2-((2-(dimethylamino)ethyl)(methyl)amino)-4-methoxyphenyl)acrylamide] | – | GI50 [1]: 13.4 nM; IC50 (A431 cell line): 46.6 nM; IC50 (EGFR D770_N771insNPG): 0.18 nM
C=CC(=O)Nc1cc(Nc2ncc(N=S(C)(C)=O)c(-c3cn(C)c4ccccc34)n2)c(OC)cc1N(C)CCN(C)C [Example 136, N-(5-((5-((Dimethyl(oxo)-λ^6-sulfaneylidene)amino)-4-(1-methyl-1H-indol-3-yl)pyrimidin-2-yl)amino)-2-((2-(dimethylamino)ethyl)(methyl)amino)-4-methoxyphenyl)acrylamide] | 250 | –
C=CC(=O)Nc1cc(Nc2ncc(C#N)c(-c3cn(C4COC4)c4cc(OC)ccc34)n2)c(OC)cc1N(C)CCN(C)C [Example 137, N-(5-((5-Cyano-4-(6-methoxy-1-(oxetan-3-yl)-1H-indol-3-yl)pyrimidin-2-yl)amino)-2-((2-(dimethylamino)ethyl)(methyl)amino)-4-methoxyphenyl)acrylamide] | – | GI50 [1]: 9.78 nM; IC50 (A431 cell line): 18.2 nM; IC50 (EGFR D770_N771insNPG): 0.16 nM
C=CC(=O)Nc1cc(Nc2ncc(C(=O)NCc3ccc(F)cc3)c(-c3cn(C)c4ccccc34)n2)c(OC)cc1N(C)CCN(C)C [Example 142, 2-((5-Acrylamido-4-((2-(dimethylamino)ethyl)(methyl)amino)-2-methoxyphenyl)amino)-N-(4-fluorobenzyl)-4-(1-methyl-1H-indol-3-yl)pyrimidine-5-carboxamide] | 133 | –

Continued, in another order:

IC50 (EGFR WT) [nM] | SMILES | further results
453 | CC#CC(=O)Nc1cc(Nc2ncc(C(F)(F)F)c(-c3cn(C4CC4)c4ccccc34)n2)c(OC)cc1N1C[C@H]2CN(C)C[C@H]2C1 [Example 30, N-(5-((4-(1-Cyclopropyl-1H-indol-3-yl)-5-(trifluoromethyl)pyrimidin-2-yl)amino)-4-methoxy-2-((3aR,6aS)-5-methylhexahydropyrrolo[3,4-c]pyrrol-2(1H)-yl)phenyl)but-2-ynamide] | –
> 1000 | C=CC(=O)Nc1cc(Nc2ncc(C(=O)N(C)C)c(-c3cn(C)c4ccccc34)n2)c(OC)cc1N1C[C@H]2CN(C)C[C@H]2C1 [Example 31, 2-((5-Acrylamido-2-methoxy-4-((3aR,6aS)-5-methylhexahydropyrrolo[3,4-c]pyrrol-2(1H)-yl)phenyl)amino)-N,N-dimethyl-4-(1-methyl-1H-indol-3-yl)pyrimidine-5-carboxamide] | –
50.8 | C=C(F)C(=O)Nc1cc(Nc2ncc(-c3ncco3)c(-c3cn(C4CC4)c4ccccc34)n2)c(OC)cc1N1CC(N(C)C)C1 [Example 66, N-(5-((4-(1-Cyclopropyl-1H-indol-3-yl)-5-(oxazol-2-yl)pyrimidin-2-yl)amino)-2-(3-(dimethylamino)azetidin-1-yl)-4-methoxyphenyl)-2-fluoroacrylamide] | –
> 1000 | C=CC(=O)Nc1cc(Nc2ncc(C#N)c(-n3nc(C)c4ccccc43)n2)c(OC)cc1N(C)CCN(C)C [Example 138, N-(5-((5-Cyano-4-(3-methyl-1H-indazol-1-yl)pyrimidin-2-yl)amino)-2-((2-(dimethylamino)ethyl)(methyl)amino)-4-methoxyphenyl)acrylamide] | –
